Measurements reported in patent US20240381872A1, “SUBSTITUTED 2,3-DIHYDRO[1,3]THIAZOLO[4,5-B]PYRIDINES, SALTS THEREOF AND THEIR USE AS HERBICIDALLY ACTIVE SUBSTANCES” (BAYER AKTIENGESELLSCHAFT, priority 2021, published 2024).

How the values were obtained:
Type in all cases: in vivo
[1] = test system: Alopecurus myosuroides (ALOMY); test: Herbicidal pre-emergence action, section A (Table A2); details: application rate 1280 g/ha; visual grading after ca. 3 weeks vs untreated controls
From the text: (§1) Seeds of mono- and dicotyledonous weed plants were sown in plastic pots (double sowings with one species of mono- and one species of dicotyledonous weed plants per pot), in sandy loam, and covered with soil. The compounds according to the invention, formulated in the form of wettable powders (WP) or as emulsifiable concentrates (EC), were applied to the surface of the covering soil as aqueous suspension or emulsion, with the addition of 0.5% of an additive, at an application rate of 600 l of water per hectare (converted). Following treatment, the pots were placed in a greenhouse and kept under optimum growth conditions for the test plants. The visual grading of the damage to the test plants was carried out after ca. 3 weeks in comparison to untreated controls (herbicidal effect in percent (%): 100% effect=plants have died off, 0% effect=as control plants).

Lolium rigidum (LOLRI) = test: Herbicidal pre-emergence action, section A (Table A5); details: visual grading after ca. 3 weeks vs untreated controls
From the text: as §1

Stellaria media (STEME) [2] = test: Herbicidal post-emergence action, section B (Table B9); details: application rate 1280 g/ha, visual rating about 3 weeks after treatment vs untreated controls
Method: (§2) Seeds of mono- and dicotyledonous weed plants were placed in plastic pots in sandy loam soil (doubly sown with in each case one species of mono- or dicotyledonous weed plants per pot), covered with soil and cultivated in a greenhouse under controlled growth conditions. 2 to 3 weeks after sowing, the test plants were treated at the one-leaf stage. The compounds of the invention, formulated in the form of wettable powders (WP) or as emulsion concentrates (EC), were applied onto the green parts of the plants as aqueous suspension or emulsion with addition of 0.5% additive at a water application rate of 600 liters per hectare (converted). After the test plants had been kept in the greenhouse under optimum growth conditions for about 3 weeks, the activity of the preparations was rated visually in comparison to untreated controls. For example, 100% activity=the plants have died, 0% activity=like control plants.

[3] = test system: Echinochloa crus-galli (ECHCG); test: Herbicidal pre-emergence action, section A (Table A3); details: visual grading after ca. 3 weeks vs untreated controls; for pre-emergence activity against ECHCG in %: application rate 1280 g/ha
From the text: as §1

[4] = test system: Echinochloa crus-galli (ECHCG); test: Herbicidal post-emergence action, section B (Table B3); details: rated visually after about 3 weeks
Method: as §2

[5] = test system: Amaranthus retroflexus (AMARE); test: Herbicidal pre-emergence action, section A (Table A11)
From the text: as §1

Kochia scoparia (KCHSC) [6] = test: Herbicidal pre-emergence action, section A (Table A4); details: visual grading after ca. 3 weeks vs untreated controls
From the text: as §1

Stellaria media (STEME) [7] = test: Herbicidal pre-emergence action, section A (Table A9)
From the text: as §1

[8] = test system: Matricaria inodora (MATIN); test: Herbicidal pre-emergence action, section A (Table A6); details: visual grading after ca. 3 weeks vs untreated controls
From the text: as §1

[9] = test system: Digitaria sanguinalis (DIGSA); test: Herbicidal pre-emergence action, section A (Table A12)
From the text: as §1

Poa annua (POAAN) = test: Herbicidal pre-emergence action, section A (Table A7); details: visual grading after ca. 3 weeks vs untreated controls
From the text: as §1

Setaria viridis (SETVI) [10] = test: Herbicidal pre-emergence action, section A (Table A8)
From the text: as §1

Veronica persica (VERPE) [11] = test: Herbicidal pre-emergence action, section A (Table A10)
From the text: as §1

[12] = test system: Amaranthus retroflexus (AMARE); test: Herbicidal post-emergence action, section B (Table B11); details: application rate 1280 g/ha, visual rating about 3 weeks after treatment vs untreated controls
Method: as §2

Setaria viridis (SETVI) [13] = test: Herbicidal post-emergence action, section B (Table B8); details: application rate 1280 g/ha, visual rating about 3 weeks after treatment vs untreated controls
Method: as §2

Kochia scoparia (KCHSC) [14] = test: Herbicidal post-emergence action, section B (Table B4); details: application rate 1280 g/ha; visual rating about 3 weeks after treatment vs untreated controls
Method: as §2

Veronica persica (VERPE) [15] = test: Herbicidal post-emergence action, section B (Table B10); details: application rate 1280 g/ha; visual rating about 3 weeks after treatment vs untreated controls
Method: as §2

CCCS(=O)(=O)N1CSc2cc(C)c(-c3cccc(F)c3F)nc21 [Example I-145]
pre-emergence activity against ALOMY in % [1]: 90% | pre-emergence activity against LOLRI in % (Lolium rigidum (LOLRI); application rate 1280 g/ha): 100% | post-emergence activity against STEME in % (Stellaria media (STEME) [2]): 90% | pre-emergence activity against ECHCG in % [3]: 100% | post-emergence activity against ECHCG in % ([4]; application rate 1280 g/ha): 90% | pre-emergence activity against AMARE in % ([5]; application rate 1280 g/ha): 90% | pre-emergence activity against KCHSC in % (Kochia scoparia (KCHSC) [6]; application rate 320 g/ha): 90% | pre-emergence activity against STEME in % (Stellaria media (STEME) [7]; application rate 320 g/ha): 90% | pre-emergence activity against MATIN in % ([8]; application rate 1280 g/ha): 90% | pre-emergence activity against DIGSA in % ([9]; application rate 1280 g/ha): 100% | pre-emergence activity against POAAN in % (Poa annua (POAAN); application rate 320 g/ha): 100% | pre-emergence activity against SETVI in % (Setaria viridis (SETVI) [10]; application rate 1280 g/ha): 100% | pre-emergence activity against VERPE in % (Veronica persica (VERPE) [11]; application rate 1280 g/ha): 90%

Cc1cc2c(nc1-c1cccc(F)c1F)N(S(C)(=O)=O)CS2 [Example I-147, 5-(2,3-difluorophenyl)-6-methyl-3-(methylsulfonyl)-2,3-dihydro[1,3]thiazolo[4,5-b]pyridine]
pest or weed control at 1280 g/ha (Lolium rigidum (LOLRI); Lolium rigidum, pre-emergence, 504 h, application rate 1280 g/ha, read-out: pre-emergence activity against LOLRI in %): 90% | pest or weed control at 1280 g/ha (Stellaria media (STEME) [2]; Stellaria media, post-emergence, 504 h, read-out: post-emergence activity against STEME in %): 90% | pest or weed control at 320 g/ha ([3]; Echinochloa crus-galli, pre-emergence, 504 h, application rate 320 g/ha, read-out: pre-emergence activity against ECHCG in %): 100% | pest or weed control at 1280 g/ha ([12]; Amaranthus retroflexus, post-emergence, 504 h, read-out: post-emergence activity against AMARE in %): 90% | pest or weed control at 320 g/ha ([5]; Amaranthus retroflexus, 504 h, application rate 320 g/ha, read-out: pre-emergence activity against AMARE in %): 90% | pest or weed control at 1280 g/ha (Setaria viridis (SETVI) [13]; Setaria viridis, post-emergence, 504 h, read-out: post-emergence activity against SETVI in %): 90% | pest or weed control at 320 g/ha (Kochia scoparia (KCHSC) [6]; Bassia scoparia, pre-emergence, 504 h, application rate 320 g/ha, read-out: pre-emergence activity against KCHSC in %): 90% | pest or weed control at 1280 g/ha (Stellaria media (STEME) [7]; Stellaria media, 504 h, application rate 1280 g/ha, read-out: pre-emergence activity against STEME in %): 90% | pest or weed control at 1280 g/ha ([8]; Tripleurospermum inodorum, pre-emergence, 504 h, application rate 1280 g/ha, read-out: pre-emergence activity against MATIN in %): 90% | pest or weed control at 320 g/ha ([9]; Digitaria sanguinalis, 504 h, application rate 320 g/ha, read-out: pre-emergence activity against DIGSA in %): 90% | pest or weed control at 320 g/ha (Poa annua (POAAN); Poa annua, pre-emergence, 504 h, application rate 320 g/ha, read-out: pre-emergence activity against POAAN in %): 100% | pest or weed control at 320 g/ha (Setaria viridis (SETVI) [10]; Setaria viridis, 504 h, application rate 320 g/ha, read-out: pre-emergence activity against SETVI in %): 100% | pest or weed control at 320 g/ha (Veronica persica (VERPE) [11]; Veronica persica, 504 h, application rate 320 g/ha, read-out: pre-emergence activity against VERPE in %): 90%

COC(=O)CCC(=O)N1CSc2cc(C)c(-c3cccc(F)c3F)nc21 [Example I-153]
pre-emergence activity against LOLRI in % (Lolium rigidum (LOLRI); application rate 320 g/ha): 90% | post-emergence activity against STEME in % (Stellaria media (STEME) [2]): 90% | pre-emergence activity against ECHCG in % [3]: 90% | pre-emergence activity against AMARE in % ([5]; application rate 320 g/ha): 90% | post-emergence activity against SETVI in % (Setaria viridis (SETVI) [13]): 90% | pre-emergence activity against KCHSC in % (Kochia scoparia (KCHSC) [6]; application rate 320 g/ha): 90% | pre-emergence activity against STEME in % (Stellaria media (STEME) [7]; application rate 320 g/ha): 90% | pre-emergence activity against MATIN in % ([8]; application rate 1280 g/ha): 90% | pre-emergence activity against DIGSA in % ([9]; application rate 320 g/ha): 90% | pre-emergence activity against POAAN in % (Poa annua (POAAN); application rate 1280 g/ha): 100% | pre-emergence activity against SETVI in % (Setaria viridis (SETVI) [10]; application rate 1280 g/ha): 100% | pre-emergence activity against VERPE in % (Veronica persica (VERPE) [11]; application rate 1280 g/ha): 90%

CS(=O)(=O)N1CSc2cc(Br)c(-c3cccc(Cl)c3F)nc21 [Example I-116]
pre-emergence activity against ALOMY in % [1]: 90% | post-emergence activity against KCHSC in % (Kochia scoparia (KCHSC) [14]): 90% | pre-emergence activity against SETVI in % (Setaria viridis (SETVI) [10]; application rate 1280 g/ha): 90% | pre-emergence activity against VERPE in % (Veronica persica (VERPE) [11]; application rate 1280 g/ha): 90%

CCCS(=O)(=O)N1CSc2cc(C)c(-c3cccc(Cl)c3F)nc21 [Example I-112]
post-emergence activity against ECHCG in % ([4]; application rate 320 g/ha): 100% | pre-emergence activity against AMARE in % ([5]; application rate 1280 g/ha): 90% | pre-emergence activity against STEME in % (Stellaria media (STEME) [7]; application rate 1280 g/ha): 90% | pre-emergence activity against POAAN in % (Poa annua (POAAN); application rate 1280 g/ha): 100% | pre-emergence activity against SETVI in % (Setaria viridis (SETVI) [10]; application rate 1280 g/ha): 90% | pre-emergence activity against VERPE in % (Veronica persica (VERPE) [11]; application rate 1280 g/ha): 90%

CCOC(=O)c1cc2c(nc1-c1ccccc1F)NCS2 [Example I-004]
post-emergence activity against KCHSC in % (Kochia scoparia (KCHSC) [14]): 90% | pre-emergence activity against ECHCG in % [3]: 100% | post-emergence activity against ECHCG in % ([4]; application rate 1280 g/ha): 90% | post-emergence activity against AMARE in % [12]: 100% | post-emergence activity against VERPE in % (Veronica persica (VERPE) [15]): 90% | pre-emergence activity against KCHSC in % (Kochia scoparia (KCHSC) [6]; application rate 1280 g/ha): 90% | pre-emergence activity against MATIN in % ([8]; application rate 1280 g/ha): 90% | pre-emergence activity against POAAN in % (Poa annua (POAAN); application rate 1280 g/ha): 100% | pre-emergence activity against SETVI in % (Setaria viridis (SETVI) [10]; application rate 1280 g/ha): 100%

CC(=O)N1CSc2cc(C)c(-c3cc(F)ccc3F)nc21 [Example I-168]
pre-emergence activity against ALOMY in % [1]: 90% | pre-emergence activity against LOLRI in % (Lolium rigidum (LOLRI); application rate 320 g/ha): 90% | post-emergence activity against KCHSC in % (Kochia scoparia (KCHSC) [14]): 90% | pre-emergence activity against ECHCG in % [3]: 100% | pre-emergence activity against AMARE in % ([5]; application rate 320 g/ha): 90% | post-emergence activity against VERPE in % (Veronica persica (VERPE) [15]): 90% | pre-emergence activity against KCHSC in % (Kochia scoparia (KCHSC) [6]; application rate 320 g/ha): 90% | pre-emergence activity against STEME in % (Stellaria media (STEME) [7]; application rate 320 g/ha): 90% | pre-emergence activity against MATIN in % ([8]; application rate 320 g/ha): 90% | pre-emergence activity against DIGSA in % ([9]; application rate 320 g/ha): 100% | pre-emergence activity against POAAN in % (Poa annua (POAAN); application rate 320 g/ha): 100% | pre-emergence activity against SETVI in % (Setaria viridis (SETVI) [10]; application rate 320 g/ha): 100% | pre-emergence activity against VERPE in % (Veronica persica (VERPE) [11]; application rate 320 g/ha): 90%
